Calls of active or inactive are those of the source. No cut-off for these calls is given here.

Target in the first assay: not listed separately
Kind of assay: Inhibition of alpha glucosidase (unknown origin) using p-nitrophenyl alpha-D-glucopyranoside as substrate pretreated for 15 mins followed by substrate addition after 30 mins by spectrophotometric method. Set-up: species or system Homo sapiens.
As a reminder, the IC50 is the midpoint of a concentration-inhibition curve. For the molecule `CCOC(=O)N/N=C/c1coc2cc(O)ccc2c1=O`, the IC50 was 95.4 µM.

Turning to `Cc1ccc(S(=O)(=O)N/N=C/c2coc3cc(O)ccc3c2=O)cc1`, the IC50 is over 100 µM.

As for `O=C(N/N=C/c1coc2ccccc2c1=O)c1ccccc1`, the IC50 was over 100 µM.

As for `O=c1c(/C=N/Nc2cccc(Cl)c2)coc2ccccc12`, the IC50 is over 100 µM.

As for `O=c1c(/C=N/Nc2cccc(Cl)c2)coc2cc(O)ccc12`, the IC50 is 96.7 µM.

As for `O=C(N/N=C/c1coc2ccccc2c1=O)c1ccc(O)cc1`, the IC50 was 39.8 µM.

For the molecule `O=C(N/N=C/c1coc2ccccc2c1=O)c1cccs1`, the IC50 is over 100 µM.

As to `O=C(N/N=C/c1coc2cc(O)ccc2c1=O)c1ccc(O)cc1`, the IC50 turned out to be 86.3 µM.

On to `Nc1ccc(C(=O)N/N=C/c2coc3ccccc3c2=O)cc1`, for which the IC50 stood at 96.9 µM.

`O=C(N/N=C/c1coc2cc(O)ccc2c1=O)c1ccccc1`: the half-inhibitory concentration (IC50) was determined as 45.7 µM.

`NS(=O)(=O)c1ccc(N/N=C/c2coc3ccccc3c2=O)cc1`: the half-inhibitory concentration (IC50) came out at 20.1 µM.

Regarding `NS(=O)(=O)c1ccc(N/N=C/c2coc3cc(O)ccc3c2=O)cc1`, the IC50 came out at 25.2 µM.

Consider `Nc1ccc(C(=O)N/N=C/c2coc3cc(O)ccc3c2=O)cc1`, for which the IC50 stood at 30.8 µM.

Regarding `O=c1c(/C=N/Nc2ccccc2)coc2ccccc12`, the IC50 was found to be 26.7 µM.

On to `O=C(N/N=C/c1coc2cc(O)ccc2c1=O)c1cccs1`, for which the IC50 came to 60.8 µM.

Regarding `CCOC(=O)N/N=C/c1coc2ccccc2c1=O`, the IC50 was over 100 µM.

The species named for the next assay is Homo sapiens. Kind of assay: Non-competitive inhibition of alpha glucosidase (unknown origin) at 10 to 30 uM using p-nitrophenyl alpha-D-glucopyranoside as substrate by line-weaver burk plot method.
Take `NS(=O)(=O)c1ccc(N/N=C/c2coc3ccccc3c2=O)cc1`: the inhibition entry was “Active”.

These data come from ChEMBL document CHEMBL4033687, “Synthesis, biological evaluation and molecular docking studies of chromone hydrazone derivatives as α-glucosidase inhibitors” (Bioorg Med Chem Lett, 2017).
